In paper PMC3475717, “A Spiroligomer α-Helix Mimic That Binds HDM2, Penetrates Human Cells and Stabilizes HDM2 in Cell Culture” (PLoS ONE, 2012):
Values joined by “and” are separate entries in the source; they are usually repeats but may differ in a detail not shown here. Identical values can stand only once. “Also recorded” adds a separate entry of the source. One block for each molecule: values may come before it.

Tests used:
HDM2 [1] = biological target: T1, HDM2 (Homo sapiens, UniProt Q00987); assay: competition fluorescence polarization experiment (displacement of Flp4 peptide); type: binding; conditions: hDM2 0.4 μM, Flp4 10 nM, three independent trials
T1 construct: A fusion protein consisting of residues 1-140; unnamed fusion partner ('fusion protein'); made in house; host or cells: E. coli BL21
Description: Competition Fluorescence Polarization Experiments. To assess the ability of oligomer 2 to […]
competition experiments were undertaken. hDM2 (0.4 μM) and Flp4 control peptide (10 nM) were incubated at room temperature for 30 minutes in binding buffer, followed by the addition of serial dilutions of oligomer 2 (final conc. 400 μM to 0.194 μM). The binding experiments were incubated for a further 30 minute time period, followed by recording of the polarization data. See […]
Bis- Pept ide ( nM ) Po lar A ( mP)
Table S.6. Table of raw values used for the plot of the competition binding experiment; X values are oligomer 2 concentration (in nM) and Y values are polarization (in millipolarization units); data from three independent trials is shown.

HDM2 [2] = biological target: T1, HDM2; assay: as above; type: binding; conditions: Flp4 at 10 nM with 2 µM HDM2, series of concentrations of spiroligomer; read-out: Ki against Flp4 peptide
HDM2_25–117 = biological target: T2, HDM2_25–117 (Homo sapiens, UniProt Q00987); assay: direct binding fluorescence polarization assay; conditions: fluorescein labeled ligand at 10 nM, varying HDM2; read-out: Kd (HDM2/MDM2)
T2 construct: unnamed fusion partner ('fusion protein'); made in house; host or cells: E. coli BL21
Description: To measure the binding affinity of the functionalized spiroligomers to HDM2 we utilized a direct binding fluorescence polarization assay. The binding of the fluorescein labeled spiroligomers was measured at 10 nM spiroligomer in the presence of varying concentrations of HDM2_25–117 [31]. […] The initial screen of spiroligomers including 3–7 was carried out on the spiroligomer backbone containing all (S) stereochemistry to identify appropriate functional groups to mimic the side chains of Phe19, Trp23 and Leu26 of the p53 helix.
HDM2 Protein Expression. A fusion protein consisting of residues 1-140 (the plasmid was a generous gift from the lab of Neil Zondlo, University of Delaware) was prepared by over-expression.4 Plasmids were used to transform chemically competent E-coli BL21 Cells (Novagen), and a single colony was used to inoculate 2×4 mL LB media culture tubes containing 0.1 mg/mL ampicillin, at 37 °C overnight. These overnight cultures were used to inoculate a 1 L culture of TB media containing 0.1 mg/ml ampicillin. The culture was incubated at 37 °C with shaking at 250 rpm until the optical density at 600 nm reached to 0.9 absorbance units. Protein overexpression was then induced by the addition of 20% isopropyl β-D-thiogalactoside (IPTG) to 0.4 mM final concentration. The culture was then grown for additional 5 hours at 30 °C. Then cells were harvested at 4 °C by centrifugation at 4500 rpm for 20 min.
The cell pellet was resuspended in chilled 1x Binding Buffer (0.5 M NaCl, 20 mMTris-Hcl, 5 mM imidazole, pH 7.9), frozen and stored at -80 °C until protein purification.
Protein Purification. The frozen cell pellet was thawed at 4 °C and lysed by sonication for 2 minutes with 10 sec on and 20 sec off. Cell debris was pelleted by centrifugation for 30 min at 15000 g, 4 °C and the supernatant was filtered through a 0.2 μm syringe filter. A column was prepared using 2 mL Novagen His-Bind suspended resin and resin was washed with 3 volumes DI water. The flow rate maintained was not more than 0.5 ml/min throughout the purification.
The resin was charged with 5 vol 1x Charge Buffer (50 mM NiSO4) and then equilibrated with 3 vol 1x Binding Buffer (5 mM imidazole). After loading the column with prepared extract, the resin was washed with 10 vol 1x Binding Buffer and then with 6 vol 1x Wash Buffer (10 mM imidazole). Protein was then eluted with 6 vol 1x Elution Buffer (1 M imidazole). The eluate was captured in fractions of 0.5 ml. Fractions were assayed with Coomasie blue and desired fractions were combined and dialyzed using spectra/por 6 Dialysis Membranes of 10,000 MWCO (Spectrum Laboratories) in PBS (pH 7.4, 5 mM EDTA and 0.5 mM DTT) for overnight.
The resulting protein was characterized by SDS-PAGE (4-20% gradient gel) for purity analysis and concentrations were measured by UV analysis.
Fresh protein was used immediately for protein binding experiments. […]
Direct Binding Fluorescence Polarization Experiments. Fluorescence polarization experiments were undertaken to assess the ability of spiroligomers to bind HDM2, a protein with hydrophobic cleft that binds the p53 N-terminal helical domain. Fluoresceinated oligomers (conc. of 10 nM) were incubated for 30 minutes at room temperature with sequential dilutions of […]

[3] = system: HDM2, p53Y220C and p21 in Huh7 cells; assay: Western blot analysis of HDM2, p53 and p21; type: cell-based, human
Description: Huh7 cells were incubated with spiroligomer 1 and Nutlin-3 in media at 2, 5, 10 and 20 µM for 17 hours at 37°C. […] Huh7 cells were then incubated with 1 at 15 µM and cells were harvested at 2, 4, 6, 8, 12 and 24 hours. […]
Cell Culture and Treatment. HepG2 (expressing wild-type p53) and Huh7 (expressing mutant p53) cell lines were purchased from the American Type Culture Collection (ATCC) and cultured as monolayers in Dulbecco’s modified Eagle’s medium (DMEM) (Invitrogen) supplemented with 100 mM nonessential amino acid solution, 100 mM sodium pyruvate, 100 U/mL penicillin, 100 μg/mL streptomycin, and 10% heat inactivated fetal bovine serum (FBS) (all from Hyclone).
Cells were maintained at 37° C and 5% CO2 and were treated with media that contained 0.5%
FBS. Nutlin-3 (Sigma) was dissolved in 0.01% DMSO (Sigma).
Both nutlin-3 and spiroligomers were added into the medium for final concentrations of 2 µM, 5 µM, 10 µM and 20 µM for 24 hours. For the western blot experiments detailed below, the time length for incubation with bis-peptide was 17 hours. […]
Western Blotting. For protein extraction, cells were lysed in cell lysis buffer (Cell Signaling) with a protease inhibitor cocktail for 20 minutes on ice. Protein extracts (50 μg) were separated by SDS-PAGE electrophoresis, transferred to nitrocellulose membranes (Schleicher & Schuell), and incubated overnight with primary antibodies to p53, HDM2, p21, and β-actin (all from Santa Cruz Biotechnology). The blots were developed using ECL plus detection system (Amersham Biosciences) and exposed to Kodak imaging films (Kodak BioMax). Images were quantified using ImageJ software (NIH).
Figure S.5. Detection of bis-peptide 1 and Nutlin-3 in HepG2 (left) and Huh7 (right) cells. The concentration of each compound is given in μM and the three proteins (HDM2, p53 and p21) bands are […]

T2 sequence (Q00987 25-117): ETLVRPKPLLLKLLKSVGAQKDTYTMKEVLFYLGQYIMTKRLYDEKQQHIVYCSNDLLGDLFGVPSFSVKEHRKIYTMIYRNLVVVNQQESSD
T1 sequence (Q00987 1-140): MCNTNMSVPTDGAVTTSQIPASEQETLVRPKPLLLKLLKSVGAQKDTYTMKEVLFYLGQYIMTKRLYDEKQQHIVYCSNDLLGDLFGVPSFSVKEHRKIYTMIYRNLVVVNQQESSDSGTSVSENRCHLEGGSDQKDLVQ

polarization of Flp4 in competition (HDM2 [1]; oligomer 194.8242 nM): 115. 56 mP and 119. 19 mP and 107. 52 mP | polarization of Flp4 in competition (HDM2 [1]; oligomer 389.6484 nM): 109. 71 mP and 120. 5 mP and 117. 89 mP | polarization of Flp4 in competition (HDM2 [1]; oligomer 779.2969 nM): 107. 07 mP and 119. 05 mP and 110. 95 mP | polarization of Flp4 in competition (HDM2 [1]; oligomer 1558.594 nM): 102. 29 mP and 112. 93 mP and 113. 76 mP | polarization of Flp4 in competition (HDM2 [1]; oligomer 3117.188 nM): 103. 88 mP and 103. 29 mP and 109. 28 mP | polarization of Flp4 in competition (HDM2 [1]; oligomer 6234.375 nM): 97.23 mP and 94.66 mP and 93.84 mP | polarization of Flp4 in competition (HDM2 [1]; oligomer 12468.75 nM): 91.7 mP and 86.62 mP and 91.97 mP | polarization of Flp4 in competition (HDM2 [1]; oligomer 24937.5 nM): 88.82 mP and 82 mP and 88.53 mP | polarization of Flp4 in competition (HDM2 [1]; oligomer 49875 nM): 86.21 mP and 84.81 mP and 86.83 mP | polarization of Flp4 in competition (HDM2 [1]; oligomer 99750 nM): 78.06 mP and 93.73 mP and 94.13 mP | polarization of Flp4 in competition (HDM2 [1]; oligomer 199500 nM): 84.38 mP and 85.9 mP and 80.84 mP | polarization of Flp4 in competition (HDM2 [1]; oligomer 399000 nM): 75.41 mP and 67.78 mP and 78.26 mP | Ki (HDM2 [2]): 5 µM
SMILES: CC(C)CN1C(=O)C2CC3(CN2C(=O)C12CC1C(=O)N(Cc4ccc(Cl)c(Cl)c4)C4(CC5C(=O)NC(CCc6ccccc6)C(=O)N5C4)C(=O)N1C2)NC(=O)C(CCC(=O)O)NC3=O (stereo not drawn) [Compound 2]

SMILES: CC(C)CCN1C(=O)[C@@H]2C[C@@]3(CN2C(=O)[C@@]12C[C@H]1C(=O)N(Cc4ccc(Cl)c(Cl)c4)[C@]4(C[C@H]5C(=O)N[C@@H](Cc6ccccc6)C(=O)N5C4)C(=O)N1C2)NC(=O)[C@H](CCCCNC(=S)Nc1ccc2c(c1)C(=O)OC21c2ccc(O)cc2Oc2cc(O)ccc21)NC3=O [Compound 5]
Kd (HDM2_25–117): 6.3 µM

Kd (HDM2_25–117): 23 µM
SMILES: CC(C)CN1C(=O)[C@@H]2C[C@@]3(CN2C(=O)[C@@]12C[C@H]1C(=O)N(Cc4ccc(Cl)c(Cl)c4)[C@@]4(C[C@H]5C(=O)N[C@H](CCc6ccccc6)C(=O)N5C4)C(=O)N1C2)NC(=O)[C@H](CCCCNC(=S)Nc1ccc2c(c1)C(=O)OC21c2ccc(O)cc2Oc2cc(O)ccc21)NC3=O [Compound 8]

Kd (HDM2_25–117): 6.7 µM
SMILES: CC(C)CN1C(=O)[C@@H]2C[C@@]3(CN2C(=O)[C@@]12C[C@H]1C(=O)N(Cc4ccc(Cl)c(Cl)c4)[C@]4(C[C@@H]5C(=O)N[C@@H](CCc6ccccc6)C(=O)N5C4)C(=O)N1C2)NC(=O)[C@H](CCCCNC(=S)Nc1ccc2c(c1)C(=O)OC21c2ccc(O)cc2Oc2cc(O)ccc21)NC3=O [Compound 9]

Kd (HDM2_25–117): 4.8 µM
SMILES: CC(C)CN1C(=O)[C@@H]2C[C@@]3(CN2C(=O)[C@@]12C[C@H]1C(=O)N(Cc4ccc(Cl)c(Cl)c4)[C@@]4(C[C@@H]5C(=O)N[C@H](CCc6ccccc6)C(=O)N5C4)C(=O)N1C2)NC(=O)[C@@H](CCCCNC(=S)Nc1ccc2c(c1)C(=O)OC21c2ccc(O)cc2Oc2cc(O)ccc21)NC3=O [Compound 10]

Kd (HDM2_25–117): 4.6 µM
SMILES: CC(C)CN1C(=O)[C@@H]2C[C@@]3(CN2C(=O)[C@@]12C[C@H]1C(=O)N(Cc4ccc(Cl)c(Cl)c4)[C@@]4(C[C@H]5C(=O)N[C@H](CCc6ccccc6)C(=O)N5C4)C(=O)N1C2)NC(=O)[C@@H](CCCCNC(=S)Nc1ccc2c(c1)C(=O)OC21c2ccc(O)cc2Oc2cc(O)ccc21)NC3=O [Compound 11]

Kd (HDM2_25–117): 1.6 µM
SMILES: CC(C)CN1C(=O)[C@@H]2C[C@@]3(CN2C(=O)[C@@]12C[C@H]1C(=O)N(Cc4ccc(Cl)c(Cl)c4)[C@]4(C[C@H]5C(=O)N[C@@H](CCc6ccccc6)C(=O)N5C4)C(=O)N1C2)NC(=O)[C@@H](CCCCNC(=S)Nc1ccc2c(c1)C(=O)OC21c2ccc(O)cc2Oc2cc(O)ccc21)NC3=O [Compound 12]

Kd (HDM2_25–117): 16 µM
SMILES: CC(C)CN1C(=O)[C@@H]2C[C@@]3(CN2C(=O)[C@@]12C[C@H]1C(=O)N(Cc4cccc5ccccc45)[C@]4(C[C@H]5C(=O)N[C@@H](Cc6ccccc6)C(=O)N5C4)C(=O)N1C2)NC(=O)[C@H](CCCCNC(=S)Nc1ccc2c(c1)C(=O)OC21c2ccc(O)cc2Oc2cc(O)ccc21)NC3=O [Compound S10]

SMILES: COc1ccc(C2=N[C@@H](c3ccc(Cl)cc3)[C@@H](c3ccc(Cl)cc3)N2C(=O)N2CCNC(=O)C2)c(OC(C)C)c1 [Nutlin-3]
HDM2 levels relative to control cells [3]: not seen; also recorded: very weak stabilization effect on HDM2 | HDM2 levels with time [3]: only very small changes; also recorded: very little effect on HDM2 | p53Y220C levels [3]: No visible effect | p53Y220C levels with time [3]: no observable effect on p53Y220C levels
